From PMC3177598 (Bioorganic & medicinal chemistry letters, 2008)

Assays:
mAChRs (M1, M3 and M5) = conditions: in our hands; ref [8]; cited from earlier work
D2 = D2 (Homo sapiens, UniProt P14416); assay: D2 antagonist activity / D2 inhibition; type: cell-based
D2, sequence (P14416 whole entry): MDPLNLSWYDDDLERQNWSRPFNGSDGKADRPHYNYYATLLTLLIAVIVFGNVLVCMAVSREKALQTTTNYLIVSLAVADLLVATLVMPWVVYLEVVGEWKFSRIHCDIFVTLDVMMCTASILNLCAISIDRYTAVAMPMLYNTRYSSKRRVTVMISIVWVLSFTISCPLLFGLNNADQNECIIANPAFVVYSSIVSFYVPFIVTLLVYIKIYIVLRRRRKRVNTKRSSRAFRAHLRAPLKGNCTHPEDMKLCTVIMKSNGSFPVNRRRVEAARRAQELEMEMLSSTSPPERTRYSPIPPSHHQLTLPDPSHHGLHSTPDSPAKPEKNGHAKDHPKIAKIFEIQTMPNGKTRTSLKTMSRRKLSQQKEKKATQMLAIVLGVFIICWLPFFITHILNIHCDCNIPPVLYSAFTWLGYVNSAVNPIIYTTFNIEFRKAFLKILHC

SMILES	mAChR subtypes activated (in words) (mAChRs (M1, M3 and M5))	D2 inhibition (in words) (D2)
CC[C@@H]1SC2(CCN(C)CC2)NC1=O [AF267B]	activates M1, M3 and M5, and is M3 preferring	–
Cc1ccccc1CN1CCC(N2CCC(n3c(=O)[nH]c4cc(F)ccc43)CC2)CC1 [Compound 20b]	–	no significant D2 inhibition
Cc1ccccc1CN1CCC(N2CCC(n3c(=O)[nH]c4ccc(F)cc43)CC2)CC1 [Compound 20c]	–	no significant D2 inhibition
